Results: patent US10208089B2, “Modulation of complement activity” (priority 2014, dated 2019)
Starred links: 1 amine or outer side, 2 acyl side, 3 side chain; linkers in the order of their positions; H or OH if unused. Positions of bridges follow the written chain, without caps; N, C: chain ends. Non-standard residues stand in square brackets, D forms with d. Residues, ends and D or L forms follow the SMILES beside them. Trp(7-aza) = N[C@@H](Cc1c[nH]c2ncccc12)C(=O)O; mXylylene = c1cc(C[*:1])cc(C[*:2])c1; Phg = N[C@H](C(=O)O)c1ccccc1; Tle = CC(C)(C)[C@H](N)C(=O)O; NMeS = CN[C@@H](CO)C(=O)O; Nva = CCC[C@H](N)C(=O)O; Sar = CNCC(=O)O

These compounds were tested against C5 (Homo sapiens, UniProt P01031) (assay: Human hemolysis assay (RBC lysis assay using complete human sera)). Conditions: 7-azatryptophan variant polypeptides of R3002; inhibition of red blood cell lysis.
Chain of C5 (P01031 19-1676): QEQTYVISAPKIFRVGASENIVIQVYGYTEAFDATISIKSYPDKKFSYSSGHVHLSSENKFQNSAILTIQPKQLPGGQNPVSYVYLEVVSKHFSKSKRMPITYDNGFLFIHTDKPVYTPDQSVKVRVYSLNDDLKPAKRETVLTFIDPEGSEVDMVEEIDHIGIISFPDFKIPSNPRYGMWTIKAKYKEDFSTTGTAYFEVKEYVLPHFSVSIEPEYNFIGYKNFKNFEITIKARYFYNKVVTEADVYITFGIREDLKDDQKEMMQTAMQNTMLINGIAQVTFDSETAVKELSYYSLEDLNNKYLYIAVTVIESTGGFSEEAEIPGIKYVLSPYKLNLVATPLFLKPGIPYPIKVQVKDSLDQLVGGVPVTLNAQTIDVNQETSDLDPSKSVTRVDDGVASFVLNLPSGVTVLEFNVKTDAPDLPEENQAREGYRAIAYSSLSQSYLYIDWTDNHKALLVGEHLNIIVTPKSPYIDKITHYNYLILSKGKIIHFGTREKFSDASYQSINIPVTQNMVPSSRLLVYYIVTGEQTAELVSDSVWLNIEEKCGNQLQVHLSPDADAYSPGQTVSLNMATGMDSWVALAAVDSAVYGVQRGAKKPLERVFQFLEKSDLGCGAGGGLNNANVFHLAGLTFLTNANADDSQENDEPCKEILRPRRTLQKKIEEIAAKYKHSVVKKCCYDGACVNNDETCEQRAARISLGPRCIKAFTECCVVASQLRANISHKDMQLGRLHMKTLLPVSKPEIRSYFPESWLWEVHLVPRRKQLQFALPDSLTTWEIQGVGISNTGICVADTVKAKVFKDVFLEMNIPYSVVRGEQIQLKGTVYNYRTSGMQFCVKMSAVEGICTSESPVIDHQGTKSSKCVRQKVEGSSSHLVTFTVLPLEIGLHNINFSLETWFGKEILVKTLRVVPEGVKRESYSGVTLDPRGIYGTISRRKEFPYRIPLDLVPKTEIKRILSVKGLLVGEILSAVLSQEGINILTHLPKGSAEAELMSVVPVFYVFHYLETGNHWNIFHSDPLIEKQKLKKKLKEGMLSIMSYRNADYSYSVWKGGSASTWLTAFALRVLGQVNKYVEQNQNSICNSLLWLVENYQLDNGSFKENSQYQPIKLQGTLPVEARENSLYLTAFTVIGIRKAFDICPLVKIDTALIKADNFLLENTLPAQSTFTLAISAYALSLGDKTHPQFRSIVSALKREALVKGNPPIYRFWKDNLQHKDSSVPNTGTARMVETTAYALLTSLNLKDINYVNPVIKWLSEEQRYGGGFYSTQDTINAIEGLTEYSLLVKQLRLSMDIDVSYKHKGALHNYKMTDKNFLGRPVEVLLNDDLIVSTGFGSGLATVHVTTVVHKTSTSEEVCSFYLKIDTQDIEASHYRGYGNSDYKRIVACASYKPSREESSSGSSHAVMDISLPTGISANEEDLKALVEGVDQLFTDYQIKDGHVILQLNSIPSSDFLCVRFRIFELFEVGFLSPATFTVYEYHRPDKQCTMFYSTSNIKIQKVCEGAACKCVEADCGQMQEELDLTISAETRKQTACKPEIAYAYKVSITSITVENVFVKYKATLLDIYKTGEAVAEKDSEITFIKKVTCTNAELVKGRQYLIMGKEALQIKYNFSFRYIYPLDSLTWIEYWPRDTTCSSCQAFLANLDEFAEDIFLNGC
Type: cell-based
Set-up: with complete human sera (Complement Technology, Tyler Tex.) and polypeptides; tissue Complement Technology, Tyler Tex; host or cells: complete human serum
For CCC[C@H](NC(=O)[C@@H](NC(=O)[C@@H]1CCCN1C(=O)[C@H](Cc1ccc(O)cc1)NC(=O)[C@H](CCC(=O)O)NC(=O)[C@@H]1CSCc2cccc(c2)CSC[C@H](NC(=O)[C@H](CCC)NC(C)=O)C(=O)N[C@@H](Cc2ccc(O)cc2)C(=O)N[C@@H](CCC(=O)O)C(=O)N[C@@H](CC(N)=O)C(=O)N[C@@H](C(C)(C)C)C(=O)N[C@@H](Cc2ccc(O)cc2)C(=O)N1)c1ccccc1)C(N)=O [Compound R3017, [mXylyl(2,8)]Ac-Nvl-C-Y-E-N-Tbg-Y-C-E-Y-P-Phg-Nvl-NH2] (Ac-[Nva]CYEN[Tle]YCEYP[Phg][Nva]-NH2; linker 2-8 via mXylylene), the IC50 was over 100 µM.

Same assay, conditions: inhibition of lysis of antibody-sensitized sheep erythrocytes, complete human sera
In the case of CCC[C@H](NC(C)=O)C(=O)N[C@@H](CS)C(=O)N[C@@H](Cc1ccc(O)cc1)C(=O)N[C@@H](CCCCN)C(=O)N[C@@H](CC(N)=O)C(=O)N[C@@H](Cc1ccc(O)cc1)C(=O)N[C@@H](Cc1c[nH]cn1)C(=O)N[C@@H](Cc1c[nH]c2ncccc12)C(=O)N[C@@H](CCC(=O)O)C(=O)N[C@@H](Cc1ccc(O)cc1)C(=O)N1CCC[C@H]1C(=O)N[C@H](C(=O)N[C@@H](Cc1ccc(O)cc1)C(N)=O)C(C)(C)C [Compound R3000, Ac-Nvl-C-Y-K-N-Y-H-azaTrp-E-Y-P-Tbg-Y-NH2] (Ac-[Nva]CYKNYH[Trp(7-aza)]EYP[Tle]Y-NH2), the IC50 is reported as over 10 µM. CCC[C@H](NC(C)=O)C(=O)N[C@@H](CS)C(=O)N[C@@H](Cc1ccc(O)cc1)C(=O)N[C@@H](CCC(=O)O)C(=O)N[C@@H](CC(N)=O)C(=O)N[C@H](C(=O)N[C@@H](Cc1ccc(O)cc1)C(=O)N[C@@H](Cc1c[nH]c2ncccc12)C(=O)N[C@@H](CCC(=O)O)C(=O)N[C@@H](Cc1ccc(O)cc1)C(=O)N(C)CC(=O)N[C@@H](CCC)C(=O)N(C)[C@@H](CO)C(N)=O)C(C)(C)C [Compound R3001, Ac-Nvl-C-Y-E-N-Tbg-Y-azaTrp-E-Y-(N-Me)G-Nvl-(N-Me)S-NH2] (Ac-[Nva]CYEN[Tle]Y[Trp(7-aza)]EY[Sar][Nva][NMeS]-NH2) showed an IC50 of 0.0672 µM. In the case of CCC[C@H](NC(C)=O)C(=O)N[C@@H](CS)C(=O)N[C@@H](Cc1ccc(O)cc1)C(=O)N[C@@H](CC(N)=O)C(=O)N[C@@H](CC(N)=O)C(=O)N[C@H](C(=O)N[C@@H](CCC(=O)O)C(=O)N[C@@H](Cc1c[nH]c2ncccc12)C(=O)N[C@@H](CCC(=O)O)C(=O)N[C@@H](Cc1ccc(O)cc1)C(=O)N1CCC[C@H]1C(=O)N[C@H](C(=O)N[C@H](C(N)=O)C(C)(C)C)c1ccccc1)C(C)(C)C [Compound R3004, Ac-Nvl-C-Y-N-N-Tbg-E-azaTrp-E-Y-P-Phg-Tbg-NH2] (Ac-[Nva]CYNN[Tle]E[Trp(7-aza)]EYP[Phg][Tle]-NH2), the IC50 is reported as 0.0535 µM. Compound CCC[C@H](NC(C)=O)C(=O)N[C@@H](CS)C(=O)N[C@@H](Cc1ccc(O)cc1)C(=O)N[C@@H](Cc1c[nH]c2ncccc12)C(=O)N(C)CC(=O)N[C@H](C(=O)N[C@@H](CCC)C(=O)N[C@@H](Cc1c[nH]c2ncccc12)C(=O)N[C@@H](CCC(=O)O)C(=O)N[C@@H](Cc1ccc(O)cc1)C(=O)N1CCC[C@H]1C(=O)N[C@H](C(=O)N1CCC[C@H]1C(N)=O)c1ccccc1)C(C)(C)C [Compound R3005, Ac-Nvl-C-Y-azaTrp-(N-Me)G-Tbg-Nvl-azaTrp-E-Y-P-Phg-P-NH2] (Ac-[Nva]CY[Trp(7-aza)][Sar][Tle][Nva][Trp(7-aza)]EYP[Phg]P-NH2) has an IC50 of 0.0667 µM. Compound CCC[C@H](NC(=O)CN(C)C(=O)[C@H](Cc1ccc(O)cc1)NC(=O)[C@H](CCC(=O)O)NC(=O)[C@H](Cc1c[nH]c2ncccc12)NC(=O)[C@H](Cc1ccc(O)cc1)NC(=O)[C@@H](NC(=O)[C@H](CC(N)=O)NC(=O)[C@H](CCC(=O)O)NC(=O)[C@H](Cc1ccc(O)cc1)NC(C)=O)C(C)(C)C)C(=O)N(C)[C@@H](CO)C(N)=O [Compound R3006, Ac-Y-E-N-Tbg-Y-azaTrp-E-Y-(N-Me)G-Nvl-(N-Me)S-NH2] (Ac-YEN[Tle]Y[Trp(7-aza)]EY[Sar][Nva][NMeS]-NH2) has an IC50 of 0.267 µM. CCC[C@H](NC(C)=O)C(=O)N[C@H]1CSCc2cccc(c2)CSC[C@@H](C(=O)N(C)[C@@H](CO)C(=O)N[C@H](C(=O)N[C@@H](CCCCN)C(=O)N[C@@H](Cc2c[nH]c3ncccc23)C(=O)N[C@@H](CCC(=O)O)C(=O)N[C@@H](Cc2ccc(O)cc2)C(N)=O)C(C)(C)C)NC(=O)[C@H](Cc2ccc(O)cc2)NC(=O)[C@H](c2ccccc2)NC(=O)[C@H](CCC(=O)O)NC(=O)[C@H](CCCCN)NC1=O [Compound R3007, [mXylyl(2,7)]Ac-Nvl-C-K-E-Pbg-Y-C-(N-Me)S-Tbg-K-azaTrp-E-Y-NH2] (Ac-[Nva]CKE[Phg]YC[NMeS][Tle]K[Trp(7-aza)]EY-NH2; linker 2-7 via mXylylene) was tested, and the IC50 was 0.314 µM. CCC[C@H](NC(=O)[C@@H]1CCCN1C(=O)[C@H](CCC)NC(=O)[C@@H]1CSCc2cccc(c2)CSC[C@H](NC(=O)[C@H](CCC)NC(C)=O)C(=O)N[C@@H](Cc2ccc(O)cc2)C(=O)N[C@@H](CCC(=O)O)C(=O)N(C)CC(=O)N[C@@H](C(C)(C)C)C(=O)N[C@@H](Cc2ccc(O)cc2)C(=O)N[C@@H](Cc2c[nH]c3ncccc23)C(=O)N[C@@H](CCC(=O)O)C(=O)N1)C(N)=O [Compound R3009, [mXylyl(2,10)]Ac-Nvl-C-Y-E-(N-Me)G-Tbg-Y-azaTrp-E-C-Nvl-P-Nvl-NH2] (Ac-[Nva]CYE[Sar][Tle]Y[Trp(7-aza)]EC[Nva]P[Nva]-NH2; linker 2-10 via mXylylene) showed an IC50 of over 100 µM. Compound CCC[C@H](NC(C)=O)C(=O)N[C@H]1CSCc2cccc(c2)CSC[C@@H](C(N)=O)NC(=O)[C@@H]2CCCN2C(=O)[C@H](CCC)NC(=O)[C@H](CCC)NC(=O)[C@H](CCC(=O)O)NC(=O)[C@H](Cc2c[nH]c3ncccc23)NC(=O)[C@H](Cc2ccc(O)cc2)NC(=O)[C@H](C(C)(C)C)NC(=O)CN(C)C(=O)[C@H](CCC(=O)O)NC(=O)[C@H](Cc2ccc(O)cc2)NC1=O [Compound R3010, [mXylyl(2,13)]Ac-Nvl-C-Y-E-(N-Me)G-Tbg-Y-azaTrp-E-Nvl-Nvl-P-C-NH2] (Ac-[Nva]CYE[Sar][Tle]Y[Trp(7-aza)]E[Nva][Nva]PC-NH2; linker 2-13 via mXylylene) has an IC50 of over 100 µM. For CCC[C@H](NC(=O)[C@@H]1CSCc2cccc(c2)CSC[C@H](NC(=O)[C@H](CCC)NC(C)=O)C(=O)N[C@@H](c2ccccc2)C(=O)N[C@@H]([C@@H](C)O)C(=O)N[C@@H](Cc2c[nH]c3ncccc23)C(=O)N[C@@H](CCC(=O)O)C(=O)N[C@@H](Cc2ccc(O)cc2)C(=O)N(C)[C@@H](CO)C(=O)N[C@@H](Cc2c[nH]cn2)C(=O)N1)C(N)=O [Compound R3012, [mXylyl(2,10)]Ac-Nvl-C-Phg-T-azaTrp-E-Y-(N-Me)S-H-C-Nvl-NH2] (Ac-[Nva]C[Phg]T[Trp(7-aza)]EY[NMeS]HC[Nva]-NH2; linker 2-10 via mXylylene), the IC50 was 0.148 µM. In the case of CCC[C@H](NC(C)=O)C(=O)N[C@H]1CSCc2cccc(c2)CSC[C@@H](C(N)=O)NC(=O)[C@H](Cc2c[nH]cn2)NC(=O)[C@H](CO)N(C)C(=O)[C@H](Cc2ccc(O)cc2)NC(=O)[C@H](CCC(=O)O)NC(=O)[C@H](Cc2c[nH]c3ncccc23)NC(=O)[C@H]([C@@H](C)O)NC(=O)[C@H](c2ccccc2)NC1=O [Compound R3013, [mXyly1(2,10)]Ac-Nvl-C-Phg-T-azaTrp-E-Y-(N-Me)S-H-C-NH2] (Ac-[Nva]C[Phg]T[Trp(7-aza)]EY[NMeS]HC-NH2; linker 2-10 via mXylylene), the IC50 is reported as 0.344 µM. CC(=O)N[C@H]1CSCc2cccc(c2)CSC[C@@H](C(N)=O)NC(=O)[C@H](Cc2c[nH]cn2)NC(=O)[C@H](CO)N(C)C(=O)[C@H](Cc2ccc(O)cc2)NC(=O)[C@H](CCC(=O)O)NC(=O)[C@H](Cc2c[nH]c3ncccc23)NC(=O)[C@H](Cc2ccc(O)cc2)NC(=O)[C@H](C(C)(C)C)NC1=O [Compound R3016, [mXylyl(1,9)]Ac-C-Tbg-Y-azaTrp-E-Y-(N-Me)S-H-C-NH2] (Ac-C[Tle]Y[Trp(7-aza)]EY[NMeS]HC-NH2; linker 1-9 via mXylylene) showed an IC50 of over 13 µM. Compound CCC[C@H](NC(=O)[C@@H](NC(=O)[C@@H]1CCCN1C(=O)[C@H](Cc1ccc(O)cc1)NC(=O)[C@H](CCC(=O)O)NC(=O)[C@@H]1CSCc2cccc(c2)CSC[C@H](NC(=O)[C@H](CCC)NC(C)=O)C(=O)N[C@@H](Cc2ccc(O)cc2)C(=O)N[C@@H](CCC(=O)O)C(=O)N[C@@H](CC(N)=O)C(=O)N[C@@H](C(C)(C)C)C(=O)N[C@@H](Cc2ccc(O)cc2)C(=O)N1)c1ccccc1)C(N)=O [Compound R3017, [mXylyl(2,8)]Ac-Nvl-C-Y-E-N-Tbg-Y-C-E-Y-P-Phg-Nvl-NH2] (Ac-[Nva]CYEN[Tle]YCEYP[Phg][Nva]-NH2; linker 2-8 via mXylylene) has an IC50 of over 100 µM. In the case of CCC[C@H](NC(=O)[C@@H](NC(=O)[C@@H]1CCCN1C(=O)[C@@H]1CSCc2cccc(c2)CSC[C@H](NC(=O)[C@H](CCC)NC(C)=O)C(=O)N[C@@H](Cc2ccc(O)cc2)C(=O)N[C@@H](CCC(=O)O)C(=O)N[C@@H](CC(N)=O)C(=O)N[C@@H](C(C)(C)C)C(=O)N[C@@H](Cc2ccc(O)cc2)C(=O)N[C@@H](Cc2c[nH]c3ncccc23)C(=O)N[C@@H](CCC(=O)O)C(=O)N1)c1ccccc1)C(N)=O [Compound R3018, [mXylyl(2,10)]Ac-Nvl-C-Y-E-N-Tbg-Y-azaTrp-E-C-P-Phg-Nvl-NH2] (Ac-[Nva]CYEN[Tle]Y[Trp(7-aza)]ECP[Phg][Nva]-NH2; linker 2-10 via mXylylene), the IC50 is reported as over 5.73 µM. With CCC[C@H](NC(C)=O)C(=O)N[C@H]1CSCc2cccc(c2)CSC[C@@H](C(N)=O)NC(=O)[C@H](CCC)NC(=O)[C@H](c2ccccc2)NC(=O)[C@@H]2CCCN2C(=O)[C@H](Cc2ccc(O)cc2)NC(=O)[C@H](CCC(=O)O)NC(=O)[C@H](Cc2c[nH]c3ncccc23)NC(=O)[C@H](Cc2ccc(O)cc2)NC(=O)[C@H](C(C)(C)C)NC(=O)[C@H](CC(N)=O)NC(=O)[C@H](CCC(=O)O)NC(=O)[C@H](Cc2ccc(O)cc2)NC1=O [Compound R3019, [mXylyl(2,14)]Ac-Nvl-C-Y-E-N-Tbg-Y-azaTrp-E-Y-P-Phg-Nvl-C-NH2] (Ac-[Nva]CYEN[Tle]Y[Trp(7-aza)]EYP[Phg][Nva]C-NH2; linker 2-14 via mXylylene) the IC50 was 1.32 µM. Compound CSCC[C@H](N)C(=O)N[C@H]1CSCc2cccc(c2)CSC[C@@H](C(=O)N[C@@H](CCC(=O)O)C(=O)N[C@H](C(=O)N[C@@H](CCCNC(=N)N)C(=O)N[C@@H](Cc2c[nH]c3ccccc23)C(=O)N[C@@H](CCC(=O)O)C(=O)N[C@@H](Cc2ccc(O)cc2)C(N)=O)C(C)C)NC(=O)[C@H](Cc2ccc(O)cc2)NC(=O)[C@H](CCCNC(=N)N)NC(=O)[C@H](CCC(=O)O)NC(=O)[C@H](CO)NC1=O [Compound R3020, [mXylyl(2,7)]M-C-S-E-R-Y-C-E-V-R-W-E-Y-NH2] (H-MCSERYCEVRWEY-NH2; linker 2-7 via mXylylene) has an IC50 of 0.0246 µM.
